Source: patent US20240415919A1, “COMPOSITIONS AND METHODS FOR TREATMENT OF AUTOIMMUNE DISORDERS AND CANCER” (Dana-Farber Cancer Institute, Inc., priority 2021, published 2024)
“And” between values parts separate entries of the source, which are not always exact repeats. Identical values can stand only once. “Also recorded” adds a separate entry of the source.

How the values were obtained:
FL9 T cells = test: Activation (CD69) of FL9 TCR+ hybridoma / FL9 T cells by peptide-loaded EL4 (Qa-1+) cells; assay type: cell-based, mouse; details: 0, 1, 3 and 10 μg/ml, compared with cognate FL9 self-peptide
Procedure: FIG. 4 provides a graphical representation showing a Qa-1-peptide yeast library, which identified peptides with superagonistic activity. FL9 T cells were stimulated with EL4 (Qa-1+) cells in the presence of surrogate peptides selected from peptide-Qa-1 yeast library for 3 days. Activation status of FL9 T cells was measured by CD69 expression.
FIG. 58A-C and FIG. 58D-E provides representation showing identification of superagonists for FL9 T cells. FIG. 58(A) provides a schematic showing a library composed of 96 FL9 peptide variants (crude peptides) was generated by aa mutagenesis at the Qa-1 anchoring positions (p2, p3, p6, p^7 and p9). FL9 TCR^+ hybridomas were incubated with EL4 cells (Qa-1^+) loaded with each FL9 peptide variant for 12 hrs and CD69 expression and TCR downregulation were measured as an indication of TCR stimulation. […] Expression of Vα3.2 and Vβ5 on EL4 cells (trogocytosis) was measured (right). […] Dose-dependent activation of FL9 T cells was measured by culturing FL9.2 T cells with EL4 (Qa-1^+) at various concentrations of indicated peptides (0, 1, 3 and 10 μg/ml). […] Six days later, proliferation of FL9.2 T cells (CD45.2^+Vα3.2^+VD5^+) was measured by CFSE dilution (left). CD45.1^+ B6 mice were immunized with Ova323-339 peptide in CFA on day 6 and the frequency of I-A^b/Ova323-339 Tet^+ CD4 cells in activated (CD44^+) CD4 cells was analyzed on day 14. […]

[1] = test system: I-Ab/Ova323-339 Tet+ CD4 cells; test: FL9-68 vaccination followed by Ova323-339/CFA immunization; assay type: in vivo, mouse
Procedure: FIG. 58(E) CD45.1^+ B6 mice that were vaccinated with FL9-68 in CFA or CFA alone on day 0 were immunized with Ova323-339 peptide in CFA on day 6. The frequency of I-Ab/Ova323-339 Tet^+ CD4 cells in activated (CD44^+) CD4 cells in the spleen and dLN was analyzed on day 14.

[2] = test system: fully-mismatched kidney transplants; test: BALB/c to B6 kidney transplantation with FL9-SA vaccination; assay type: in vivo, mouse
Procedure: The left kidney of BALB/c mice (H-2^d) was recovered using a full-length ureter and transplanted into a B6 host (H-2^b). The ureter of the remaining native kidney was then ligated on post-operative day 2-4 to inhibit native kidney function. Surgical success was determined if mice survived seven days post-surgery (POD). Transplanted B6 hosts were treated intraperitoneally with FL9-SA (50 μg), or PBS emulsified in Adjuvant (Addavax™), once a week starting POD2. On day 20 following kidney transplantation (n=5-7/group), allograft draining lymphoid tissues were assessed for FL9-specific Treg (Qa-1-FL9 Tet^+), Tfh, GC B and plasma cells, DSA levels in sera, capillary C4d deposition and gross anatomy of kidney allografts. Survival of kidney allografts was measured by survival of recipients with absence of native kidney function.

Balb/C heart allografts = test: Balb/C heart transplantation into skin-sensitized B6 hosts after peptide vaccination; details: for heart graft survival: compared to adjuvant alone; for graft pathology (C4d deposition, immune cell infiltration): heart allografts; for donor-specific antibody (DSA): heart graft / skin-sensitized recipients
Procedure: After selecting FL9-SA, we performed BALB/c to B6 skin transplantation with or without Hsp60p2l6 and FL9-SA, followed by heart transplantation.
B6 mice were immunized i.p with 50 μg FL9-68/IFA or with IFA alone at day 0 and 7 followed by a BALB/C→B6 skin transplant at day 10. FL9-68/IFA or IFA immunization was repeated on days 10, 13 and 16. At day 27, fully vascularized Balb/C hearts were transplanted into the abdominal cavity of B6 mice using microsurgical techniques, as previously described (Cai et al., 2016). Heart graft survival was determined by monitoring palpable heart beating. At day X after skin sensitization, levels of FL9 T cells, Tfh, GC B and plasma cells in dLNs were analyzed by flowcytometry. Serum was collected from the heart graft recipient B6 mice that were either immunized with FL9-68/IFA or IFA alone at day 16. […] Histological analysis of heart grafts was performed by InvivoEx company using anti-C4d Ab (Hycult Biotech) and Vector Blue Alkaline Phosphatase Substrate Kit (Vector Laboratories).
B6 mice were immunized i.p with 50 μg FL9-68-Adjuvant (IFA or AddaVax™) or Adjuvant alone at day 0 and 7 followed by a BALB/C→B6 skin transplant at day 10. FL9-68-Adj or Adj immunization was repeated on days 10, 13 and 16. At day 27, fully vascularized Balb/C hearts were transplanted into the abdominal cavity of B6 mice using microsurgical techniques, as previously described^36. Heart graft survival was determined by monitoring palpable heart beating. At day 16 after skin sensitization, levels of FL9 T cells, Tfh, GC B and plasma cells in dLNs were analyzed by flowcytometry. Serum was collected from the heart graft recipient B6 mice that were either immunized with FL9-68/IFA or IFA alone at day 16. […] Histological analysis of heart grafts was performed by InvivoEx company using anti-C4d Ab (Hycult Biotech) and Vector Blue Alkaline Phosphatase Substrate Kit (Vector Laboratories).

In the case of FYAEATLML [FL9-68], the “stimulatory activity for FL9 T cells / FL9.2 and FL9.8 TCRs (CD69 expression)” value (FL9 T cells) is reported as “superior ability to activate FL9 T cells; also recorded: superior ability to stimulate FL9 T cells; also recorded: markedly enhanced dose-dependent stimulatory activity; also recorded: significantly enhanced stimulating activity in vitro and in vivo; also recorded: significantly enhanced stimulatory activity in vitro and in vivo”, the “inhibition of the response of I-Ab/Ova323-339 tet+ CD4 cells” value ([1]; FL9-68 in CFA day 0, Ova323-339/CFA day 6, analysis day 14) is reported as 50% and > 50% and the “numbers or percent of non-specifically activated CD4 cells” value ([1]; same experiment as E6) is reported as “did not reduce the numbers or percent of non-specifically activated CD4 cells”. For the same sequence, the “CD44+ CD4 T-cell memory responses to irradiated donor lymphocytes” value ([2]; CD4+ T cells from B6 hosts) was “reduced CD44^+ CD4 T-cell memory responses”, the “increase in FL9-specific Treg measured by FL9-Qa-1 tetramers” value ([2]; allograft-draining lymph nodes, day 20 after kidney transplantation) was > 7 fold and the “mean survival time of kidney allograft” value ([2]; controls 20.5 days) was 40 days. The “donor-specific antibody (DSA)” value ([2]; kidney graft recipients) was “markedly reduced donor specific Ab generation; also recorded: significant decrease in DSA”, the “GC response: frequency of Tfh, activated GC B and plasma cells” value ([2]; kidney graft recipients, vs IFA alone) was “markedly reduced the GC response” and the “C4d deposition in peritubular capillaries of kidney allografts” value ([2]; mouse, in vivo) was “reduced C4d deposition”. The “increase in FL9-specific CD8 cells within the Ly49+ CD8 T cell pool” value (Balb/C heart allografts; B6 mice bearing Balb/C skin allograft) was 4-5 fold, the heart graft survival (Balb/C heart allografts) was “significantly prolonged graft survival times; also recorded: promotes graft survival” and the heart graft survival (Balb/C heart allografts; listed as SA peptide) was “significantly prolonged graft survival”. For the same sequence, the “graft pathology (C4d deposition, immune cell infiltration)” value (Balb/C heart allografts) was “markedly diminished graft pathology; also recorded: inhibits graft tissue injury”, the “graft pathology (C4d deposition, immune cell infiltration)” value (Balb/C heart allografts; listed as FL9 SA peptide) was “maintenance of tissue integrity” and the “donor-specific antibody (DSA)” value (Balb/C heart allografts) was “decrease of donor specific Ab (DSA) generation; also recorded: reduced donor-specific antibody (DSA) responses; also recorded: inhibits production of DSA”. The “donor-specific antibody (DSA)” value (Balb/C heart allografts; listed as FL9 SA peptide) was “reduced generation of donor specific antibodies”, the “GC response: Tfh, GC B and plasma cells” value (Balb/C heart allografts; heart graft recipients, vs IFA alone) was “significant reduction of these cells; also recorded: decreased Tfh, GC B and plasma cell formation; also recorded: significantly reduced GC responses; also recorded: inhibition of GC Ab response” and the “alloreactive activated CD4 cells” value (Balb/C heart allografts; recipient CD4 cells co-incubated with irradiated donor splenocytes) was “decrease in alloreactive activated CD4 cells”. The “efficacy relative to Hsp60p216” value (Balb/C heart allografts; reduction in Tfh and mature B cells during sensitization, listed as FL9-SA) was “substantially more efficacious than Hsp60p2l6”.
